# Measurements as given in patent publication US10273233B2, “Inhibitors of influenza viruses replication” (Vertex Pharmaceuticals Incorporated, priority 2015, dated 2019).
# Like-named read-outs stand apart in the source and are kept apart here.
# Assays:
# [1] = rat
# [2] = monkey
# [3] = 6-month solid-state (open dish) stability; format: physicochemical; conditions: 6 months open dish; 40° C./75% RH, 5° C./60% RH, 25° C./60% RH, 40° C./dry
# Procedure: A 6-month solid-state (open dish) stability study was performed for Hydrate 3 of Compound (1). Hydrate 3 of Compound (1) was stored for 6 months under the following conditions: 40° C./75% RH, 5° C./60% RH, 25° C./60% RH, and 40° C./dry.
# [4] = Toxicology formulation stability in 0.5% MC; format: physicochemical; conditions: 0.5% MC in water suspension at 1, 60 and 100 mg/mL; ambient and 5° C.; two weeks
# Procedure: Hydrate 3 of Compound (1) was evaluated for chemical stability and homogeneity in 0.5% MC in water (suspension) at 1, 60 mg/mL and 100 mg/mL under ambient and refrigerated conditions (5° C.) for two weeks.
# [5] = Two week solubility study (final form); conditions: Nitromethane
# [6] = Intrinsic dissolution rate determination
# A/WS/33 = assay: 3-day CP assay in MDCK cells; format: cell-based; conditions: Influenza A virus
# A/NWS/33 = assay: 3-day CP assay in MDCK cells; format: cell-based, influenza A; conditions: Influenza A virus, MDCK
# A/Puerto Rico/8/34 = assay: 3-day CP assay in MDCK cells; format: cell-based; conditions: Influenza A virus
# A/Weiss/43 = assay: 3-day CP assay in MDCK cells; format: cell-based; conditions: Influenza A virus
# A/FM/1/47 = assay: 3-day CP assay in MDCK cells; format: cell-based; conditions: Influenza A virus
# A/Mal/302/54 = assay: 3-day CP assay in MDCK cells; format: cell-based; conditions: Influenza A virus
# A/Denver/1/57 = assay: 3-day CP assay in MDCK cells; format: cell-based; conditions: Influenza A virus
# A/Aichi/2/68 = assay: 3-day CP assay in MDCK cells; format: cell-based; conditions: Influenza A virus
# A/Hong Kong/8/68 = assay: 3-day CP assay in MDCK cells; format: cell-based; conditions: Influenza A virus
# A/Port Chalmers/1/73 = assay: 3-day CP assay in MDCK cells; format: cell-based; conditions: Influenza A virus
# A/Victoria/3/75 = assay: 3-day CP assay in MDCK cells; format: cell-based; conditions: Influenza A virus
# A/New Jersey/8/76 = assay: microbe, parasite or virus in culture; format: cell-based; conditions: Influenza A virus, MDCK
# A/Wisconsin/67/2005 = assay: 3-day CP assay in MDCK cells; format: cell-based; conditions: Influenza A virus
# A/Chelyabinsk/1/200 = assay: 3-day CP assay in MDCK cells; format: cell-based; conditions: Influenza A virus
# A/Fukushima/141/2006 = assay: 3-day CP assay in MDCK cells; format: cell-based; conditions: Influenza A virus
# A/Georgia/17/2006 = assay: 3-day CP assay in MDCK cells; format: cell-based; conditions: Influenza A virus
# A/Georgia/20/2006 = assay: 3-day CP assay in MDCK cells; format: cell-based, influenza A; conditions: Influenza A virus, MDCK
# A/Hawaii/2/2006 = assay: 3-day CP assay in MDCK cells; format: cell-based; conditions: Influenza A virus
# A/Missouri/3/2006 = assay: 3-day CP assay in MDCK cells; format: cell-based; conditions: Influenza A virus
# A/Nebraska/1/2006 = assay: 3-day CP assay in MDCK cells; format: cell-based; conditions: Influenza A virus
# A/Santiago/7981/2006 = assay: 3-day CP assay in MDCK cells; format: cell-based; conditions: Influenza A virus
# A/St. Petersburg8/2006 = assay: 3-day CP assay in MDCK cells; format: cell-based; conditions: Influenza A virus
# A/Virginia/01/2006 = assay: 3-day CP assay in MDCK cells; format: cell-based; conditions: Influenza A virus
# A/Cambodia0371/2007 = assay: 3-day CP assay in MDCK cells; format: cell-based; conditions: Influenza A virus
# A/Henan/Jinshui/147/2007 = assay: 3-day CP assay in MDCK cells; format: cell-based; conditions: Influenza A virus
# A/South Dakota/6/2007 = assay: 3-day CP assay in MDCK cells; format: cell-based; conditions: Influenza A virus
# A/Texas/12/2007 = assay: 3-day CP assay in MDCK cells; format: cell-based; conditions: Influenza A virus
# A/Uruguay/716/2007 = assay: 3-day CP assay in MDCK cells; format: cell-based; conditions: Influenza A virus
# A/California/07/2009 = assay: 3-day CP assay in MDCK cells; format: cell-based; conditions: Influenza A virus, MDCK; A/California/07/2009
# [7] = test system: A/California/07/2009 NYMC, X-179A; assay: 3-day CP assay in MDCK cells; format: cell-based; conditions: Influenza A virus
# A/Mexico/4108/2009 = assay: 3-day CP assay in MDCK cells; format: cell-based; conditions: Influenza A virus
# A/New York/18/2009 = assay: 3-day CP assay in MDCK cells; format: cell-based; conditions: Influenza A virus
# A/Texas/48/2009 = assay: 3-day CP assay in MDCK cells; format: cell-based; conditions: Influenza A virus
# A/Virginia/ATCC2/2009 = assay: 3-day CP assay in MDCK cells; format: cell-based; conditions: Influenza A virus
# A/Virginia/ATCC3/2009 = assay: 3-day CP assay in MDCK cells; format: cell-based; conditions: Influenza A virus
# A/Swine/Iowa/15/30 = assay: microbe, parasite or virus in culture; format: cell-based, influenza A; conditions: Influenza A virus, MDCK, in Sus scrofa
# A/Swine/1976/31 = assay: microbe, parasite or virus in culture; format: cell-based; conditions: Influenza A virus, MDCK, in Sus scrofa
# A/Equine/Miami/63 = assay: microbe, parasite or virus in culture; format: cell-based; conditions: Influenza A virus, MDCK
# B/Lee/40 = assay: 3-day CP assay in MDCK cells; format: cell-based; conditions: Influenza B virus
# B/Mass/3/66 = assay: 3-day CP assay in MDCK cells; format: cell-based; conditions: Influenza B virus
# B/Russia/69 = assay: 3-day CP assay in MDCK cells; format: cell-based; conditions: Influenza B virus
# B/Memphis/20/1996--070 = assay: 3-day CP assay in MDCK cells; format: cell-based; conditions: Influenza B virus
# B/Memphis/20/1996--071 = assay: 3-day CP assay in MDCK cells; format: cell-based; conditions: Influenza B virus
compound,measurement,setting,value
CC(C)(C)[C@@H](CC(=O)O)Nc1nc(-c2c[nH]c3ncc(F)cc23)ncc1F [Hydrate 2 of Compound (1)],"in vivo exposures (AUC), comparison of formulations","[1]; 30 mg/kg, pH 8",statistically comparable
same,"in vivo exposures (AUC), comparison of formulations","[2]; 40 mg/kg, pH 8",statistically comparable
CC(C)(C)[C@@H](CC(=O)O)Nc1nc(-c2c[nH]c3ncc(F)cc23)ncc1F [Hydrate 3 of Compound (1)],chemical changes on storage,[3],no significant chemical changes
same,crystallinity on storage by XRPD,[3],remained crystalline
same,changes in purity (% Area) by HPLC,[4],no changes were observed
same,dose up to which exposures increase proportionally,[1]; in vivo,up to 500 mg/kg
same,dose up to which exposures increase proportionally,[2]; in vivo,up to 250 mg/kg
same,bulk density,Processing properties,0.172 g/cc
same,tap density,Processing properties,0.383 g/cc
same,average flow factor (FFc),"Processing properties; Ring Shear Testing (RST), good flow is 4-10",6.8
same,tensile strength,Processing properties; at 180 MPa compression pressure,2 MPa
same,Final Form (After two Weeks),[5],Solvate
same,intrinsic dissolution rate (IDR),[6]; FaSSGF,0.020 mg/min/cm^2
same,intrinsic dissolution rate (IDR),[6]; FaSSIF,0.012 mg/min/cm^2
CCC(CC)O[C@@H]1C=C(C(=O)O)C[C@H](N)[C@H]1NC(C)=O [Oseltamivir Carboxylate],EC50,A/WS/33,> 10 µM
same,EC50,A/NWS/33,> 10 µM
same,EC50,A/Puerto Rico/8/34,> 10 µM
same,EC50,A/Weiss/43,0.49 µM
same,EC50,A/FM/1/47,6.4 µM
same,EC50,A/Mal/302/54,1.1 µM
same,EC50,A/Denver/1/57,> 10 µM
same,EC50,A/Aichi/2/68,5 µM
same,EC50,A/Hong Kong/8/68,0.038 µM
same,EC50,A/Port Chalmers/1/73,0.12 µM
same,EC50,A/Victoria/3/75,> 10 µM
same,EC50,A/New Jersey/8/76,3.8 µM
same,EC50,A/Wisconsin/67/2005,0.35 µM
same,EC50,A/Chelyabinsk/1/200,> 10 µM
same,EC50,A/Fukushima/141/2006,0.58 µM
same,EC50,A/Georgia/17/2006,> 10 µM
same,EC50,A/Georgia/20/2006,> 10 µM
same,EC50,A/Hawaii/2/2006,> 10 µM
same,EC50,A/Missouri/3/2006,2.5 µM
same,EC50,A/Nebraska/1/2006,> 10 µM
same,EC50,A/Santiago/7981/2006,> 10 µM
same,EC50,A/St. Petersburg8/2006,9.3 µM
same,EC50,A/Virginia/01/2006,0.83 µM
same,EC50,A/Cambodia0371/2007,7.8 µM
same,EC50,A/Henan/Jinshui/147/2007,> 10 µM
same,EC50,A/South Dakota/6/2007,8.2 µM
same,EC50,A/Texas/12/2007,8.5 µM
same,EC50,A/Uruguay/716/2007,> 10 µM
same,EC50,A/California/07/2009,> 10 µM
same,EC50,[7],> 10 µM
same,EC50,A/Mexico/4108/2009,> 10 µM
same,EC50,A/New York/18/2009,0.16 µM
same,EC50,A/Texas/48/2009,> 10 µM
same,EC50,A/Virginia/ATCC2/2009,> 10 µM
same,EC50,A/Virginia/ATCC3/2009,> 10 µM
same,EC50,A/Swine/Iowa/15/30,7.8 µM
same,EC50,A/Swine/1976/31,0.56 µM
same,EC50,A/Equine/Miami/63,0.25 µM
same,EC50,B/Lee/40,> 10 µM
same,EC50,B/Mass/3/66,6.7 µM
same,EC50,B/Russia/69,6 µM
same,EC50,B/Memphis/20/1996--070,> 10 µM
same,EC50,B/Memphis/20/1996--071,> 10 µM
